Assay results reported in US20040067531A1, “Methods of modulating protein tyrosine kinase function with substituted indolinone compounds” (SUGEN, INC., priority 1997, published 2004).

Experiments:
[1] = system: EGF-induced BrdU incorporation; assay: EGF-induced BrdU incorporation assay; assay type: cell-based; conditions: read-out: EGF-Induced BrdU Incorp. IC50
Description: (§1) PDGF-, FGF-, and EGF-Induced BRDU Incorporation Assay
(§2) 1. Cells were seeded at 8000 cells/well in DMEM, 10% CS, 2 mM Gln in a 96 well plate. Cells were incubated overnight at 37° C. in 5% CO2.
(§3) 2. After 24 hours, the cells were washed with PBS, and then were serum starved in serum free medium (0% CS DMEM with 0.1% BSA) for 24 hours.
(§4) 3. On day 3, ligand (PDGF=3.8 nM, prepared in DMEM with 0.1% BSA) and test compounds were added to the cells simultaneously. The negative control wells received serum free DMEM with 0.1% BSA only; the positive control cells received the ligand (PDGF) but no test compound. Test compounds were prepared in serum free DMEM with ligand in a 96 well plate, and serially diluted for 7 test concentrations.
(§5) 4. After 20 hours of ligand activation, diluted BrdU labeling reagent (1:100 in DMEM, 0.1% BSA) was added and the cells were incubated with BrdU (final concentration=10 μM) for 1.5 hours.
(§6) 5. After incubation with labeling reagent, the medium was removed by decanting and tapping the inverted plate on a paper towel. FixDenat solution was added (50 μL/well) and the plates were incubated at room temperature for 45 minutes on a plate shaker.
(§7) 6. The FixDenat solution was thoroughly removed by decanting and tapping the inverted plate on a paper towel. Milk was added (5% dehydrated milk in PBS, 200 μL/well) as a blocking solution and the plate was incubated for 30 minutes at room temperature on a plate shaker.
(§8) 7. The blocking solution was removed by decanting and the wells were washed once with PBS. Anti-BrdU-POD solution (1:100 dilution in PBS, 1% BSA) was added (100 μL/well), and the plate was incubated for 90 minutes at room temperature on a plate shaker.
(§9) 8. The antibody conjugate was thoroughly removed by decanting and rinsing the wells 5 times with PBS, and the space was dried by inverting and tapping on a paper towel.
(§10) 9. TMB substrate solution was added (100 μL/well) and incubated for 20 minutes at room temperature on a plate shaker until color development was sufficient for photometric detection.
(§11) 10. The absorbance of the samples were measured at 410 nm (in “dual wavelength” mode with a filter reading at 490 nm, as a reference wavelength) on a Dynatech ELISA plate reader.
(§12) The IC50 values were measured for several of the compounds of the invention. These values are depicted in Table 10.

FLK-1 receptor = biological target: T1, FLK-1 receptor (Mus musculus, UniProt P35918); assay: ELISA assay measuring the kinase activity of the FLK-1 receptor in cells engineered to express FLK-1; assay type: cell-based; conditions: NIH3T3 C7#3 FLK-1 expressing cells, VEGF stimulation, phosphotyrosine ELISA
T1 construct: expressed in transfected cells; host or cells: NIH3T3 C7#3
Description: An ELISA assay was conducted to measure the kinase activity of the FLK-1 receptor and more specifically, the inhibition or activation of TK activity on the FLK-1 receptor. Specifically, the following assay was conducted to measure kinase activity of the FLK-1 receptor in cells genetically engineered to express FLK-1.
(11) NIH3T3 C7#3 Cells (FLK-1 expressing cells);
The following protocol was used for conducting the assay:
1. Coat Corning 96-well elisa plates with 1.0 μg per well Cappel Anti-rabbit IgG antibody in 0.1 M Na2CO3 pH 9.6. Bring final volume to 150 μL per well. Coat plates overnight at 4° C. Plates can be kept up to two weeks when stored at 4° C.
2. Grow cells in Growth media (DMEM, supplemental with 2.0 mM L-Glutamine, 10% FBS) in suitable culture dishes until confluent at 37° C., 5% CO2.
3. Harvest cells by trypsinization and seed in Corning 25850 polystyrene 96-well roundbottom cell plates, 25.000 cells/well in 200 μL of growth media.
4. Grow cells at least one day at 37° C., 5% CO2.
5. Wash cells-with D-PBS 1×.
6. Add 200 μL/well of starvation media (DMEM, 2.0 mM 1-Glutamine, 0.1% FBS). Incubate overnight at 37° C., 5% CO2.
7. Dilute Compounds 1:20 in polypropylene 96 well plates using starvation media. Dilute dimethylsulfoxide 1:20 for use in control wells.
8. Remove starvation media from 96 well cell culture plates and add 162 μL of fresh starvation media to each well.
9. Add 18 μL of 1:20 diluted Compound dilution (from step 7) to each well plus the 1:20 dimethylsulfoxide dilution to the control wells (+/− VEGF), for a final dilution of 1:200 after cell stimulation. Final dimethylsulfoxide is 0.5%. Incubate the plate at 37° C., 5% CO2 for two hours.
10. Remove unbound antibody from ELISA plates by inverting plate to remove liquid. Wash 3 times with TBSW+0.5% ethanolamine, pH 7.0. Pat the plate on a paper towel to remove excess liquid and bubbles.
11. Block plates with TBSW+0.5% Ethanolamine, pH 7.0, 150 μL per well. Incubate plate thirty minutes while shaking on a microliter plate shaker.
12. Wash plate 3 times as described in step 10.
13. […] Bring final volume to 150 μL/well with TBSW+0.5% ethanolamine pH 7.0. Incubate plate for thirty minutes while shaking.
14. Add 180 μL starvation medium to the cells and stimulate cells with 20 μL/well 10.0 mM sodium ortho vanadate and 500 ng/mL VEGF (resulting in a final concentration of 1.0 mM sodium ortho vanadate and 50 ng/mL VEGF per well) for eight minutes at 37° C., 5% CO2. Negative control wells receive only starvation medium.
15. After eight minutes, media should be removed from the cells and washed one time with 200 μL/well PBS.
16. Lyse cells in 150 μL/well HNTG while shaking at room temperature for five minutes. HNTG formulation includes sodium ortho vanadate, sodium pyro phosphate and EDTA.
17. Wash ELISA plate three times as described in step 10.
18. Transfer cell lysates from the cell plate to ELISA plate and incubate while shaking for two hours. To transfer cell lysate pipette up and down while scrapping the wells.
19. Wash plate three times as described in step 10.
20. Incubate ELISA plate with 0.02 μg/well UB40 in TBSW+05% ethanolamine. Bring final volume to 150 μL/well. Incubate while shaking for 30 minutes.
21. Wash plate three times as described in step 10.
22. Incubate ELISA plate with 1:10,000 diluted EIA grade goat anti-mouse IgG conjugated horseradish peroxidase in TBSW+0.5% ethanolamine, pH 7.0. Bring final volume to 150 μL/well. Incubate while shaking for thirty minutes.
23. Wash plate as described in step 10.
24. Add 100 μL of ABTS/H2O2 solution to well. Incubate ten minutes while shaking.
25. Add 100 μL of 0.2 M HCl for 0.1 M HCl final to stop the color development reaction. Shake 1 minute at room temperature. Remove bubbles with slow stream of air and read the ELISA plate in an ELISA plate reader at 410 nm.
(§13) The IC50 values were measured for several of the compounds of the invention.

[2] = system: FGF-induced BrdU incorporation; assay: FGF-induced BrdU incorporation assay; assay type: cell-based; conditions: read-out: FGF-Induced BrdU Incorp. IC50
Description: as §1, §2, §3, §4, §5, §6, §7, §8, §9, §10, §11, §12

[3] = system: 3T3 cell line genetically engineered to express human PDGF-R; assay: PDGF-induced BrdU incorporation assay; assay type: cell-based; conditions: NIH3T3; 3T3 cells expressing human PDGF-R, PDGF 3.8 nM; read-out: PDGF-Induced BrdU Incorp. IC50
Description: (1) PDGF: human PDGF B/B; 1276-956, Boehringer Mannheim, Germany
(8) 3T3 cell line genetically engineered to express human PDGF-R.
as §2, §3, §4, §5, §6, §7, §8, §9, §10, §11, §12

[4] = biological target: Myc-GyrB-FGFR fusion protein (Homo sapiens, UniProt P11362); assay: ELISA assay measuring the kinase activity of the FGF receptor (Myc-GyrB-FGFR from COS/FGFR cell lysate); assay type: biochemical; conditions: 7 μM ATP
Description: The following protocol describes the reagents and procedures used to analyze protein-tyrosine kinase activity of the Myc-GyrB-FGFR fusion protein.
Coat Corning 96 well ELISA plates with 1.0 μg/well of Rabbit αGyrB antibody in PBS for a total well volume of 100 μL. Store overnight at 4° C.
Remove unbound Rabbit antibody by inverting plate to remove liquid. Pat plate on a paper towel to remove excess liquid and bubbles
Add 100 μL of Blocking Buffer (TBB) to each well. Incubate while shaking on a microliter plate shaker at room temperature for 30 min.
Wash 4× with TBST. Pat plate on a paper towel to remove excess liquid and bubbles.
Add 15 μg COS/FGFR cell lysate Myc-GyrB-FGFR sources per well in HNTG for a final volume of 100 μL per well. Incubate while shaking on a micro-liter plate shaker at room temperature for 2 hours.
Wash 4× with TBST as described in step 4.
Add 80 μL of 1× kinase buffer per well.
Dilute compunds/extracts 1:10 (or as stated otherwise) in 1× kinase buffer +1% DMSO in a polypropylene 96 well plate.
At this point diluted Compounds/Extracts are added to the ELISA plate. […]

EGFR protein = biological target: T2, EGFR protein (Homo sapiens, UniProt P00533); assay: ELISA assay measuring the kinase activity of the EGF receptor (EGFR captured from A431 cell lysate); assay type: biochemical
T2 construct: A431 cell lysate; endogenous in cells; host or cells: A431
Description: The following protocol describes the reagents and procedures used to analyze protein tyrosine kinase activity on the EGFR protein.
All of the following steps are conducted at room temperature unless it is specifically indicated. All ELISA plate washing is by rinsing 4× with TBST.
1. Coat Corning 96 well ELISA plates with 0.5 μg/well of SUMO1 in a volume of 100 μL PBS. Store overnight at 4° C.
2. Remove unbound SUMO1 by inverting plate to remove liquid. Wash plates with distilled water. Pat plate on a paper towel to remove excess liquid and bubbles
3. Add 150 μL of Blocking Buffer to each well. Incubate while shaking on a microliter plate shaker at room temperature for 30 min.
4. Wash 3× with deionized water, then once with TBST. Pat plate on a paper towel to remove excess liquid and bubbles.
5. Dilute lysate in PBS (7 μg of lysate/100 μL of PBS).
6. Add 100 μL of diluted lysate to each well. Shake at room temperature for 60 min.
7. Wash as described in step 4.
8. Add 120 μL TBS to ELISA plate containing captured EGFR.
9. Dilute drugs/extracts 1:10 (unless specified otherwise) in TBS in 96-well polypropylene plates.
10. Add 13.5 μL diluted drugs/extracts to ELISA plate.
11. Incubate for 30 minutes while shaking at room temperture.
12. […] Incubate while shaking on a micro-liter plate shaker at room temperature for 5 min.
13. Stop Kinase reaction with the addition of 16.5 μL of 200 mM EDTA pH 8.0 to all wells.
14. Wash 4× with deionized water and twice with TBST.
15. Add 100 μL per well of anti-phosphotyrosine (1:3000 dilution in TBST). Incubate while shaking on a micro-liter plate shaker 30-45 minutes at room temperature while shaking.
16. Wash as described in step 4.
17. Add 100 μL per well of biosource Goat anti-rabbit IgG peroxidase conjugate (1:2000 dilution in TBST). Incubate 30 min. at room temerature while shaking.
18. Wash as described in step 4.
19. Add 100 μL of ABTS/H2O2 solution to each well.
20. Incubate 5 to 15 minutes while shaking. Remove any bubbles.
21. If necessary stop reaction with the addition of 10 μL of 0.2 M HCl/well.
22. Read assay on Dynatech MR7000 ELISA Plate Reader.
as §13

T1 sequence (P35918 20-1345): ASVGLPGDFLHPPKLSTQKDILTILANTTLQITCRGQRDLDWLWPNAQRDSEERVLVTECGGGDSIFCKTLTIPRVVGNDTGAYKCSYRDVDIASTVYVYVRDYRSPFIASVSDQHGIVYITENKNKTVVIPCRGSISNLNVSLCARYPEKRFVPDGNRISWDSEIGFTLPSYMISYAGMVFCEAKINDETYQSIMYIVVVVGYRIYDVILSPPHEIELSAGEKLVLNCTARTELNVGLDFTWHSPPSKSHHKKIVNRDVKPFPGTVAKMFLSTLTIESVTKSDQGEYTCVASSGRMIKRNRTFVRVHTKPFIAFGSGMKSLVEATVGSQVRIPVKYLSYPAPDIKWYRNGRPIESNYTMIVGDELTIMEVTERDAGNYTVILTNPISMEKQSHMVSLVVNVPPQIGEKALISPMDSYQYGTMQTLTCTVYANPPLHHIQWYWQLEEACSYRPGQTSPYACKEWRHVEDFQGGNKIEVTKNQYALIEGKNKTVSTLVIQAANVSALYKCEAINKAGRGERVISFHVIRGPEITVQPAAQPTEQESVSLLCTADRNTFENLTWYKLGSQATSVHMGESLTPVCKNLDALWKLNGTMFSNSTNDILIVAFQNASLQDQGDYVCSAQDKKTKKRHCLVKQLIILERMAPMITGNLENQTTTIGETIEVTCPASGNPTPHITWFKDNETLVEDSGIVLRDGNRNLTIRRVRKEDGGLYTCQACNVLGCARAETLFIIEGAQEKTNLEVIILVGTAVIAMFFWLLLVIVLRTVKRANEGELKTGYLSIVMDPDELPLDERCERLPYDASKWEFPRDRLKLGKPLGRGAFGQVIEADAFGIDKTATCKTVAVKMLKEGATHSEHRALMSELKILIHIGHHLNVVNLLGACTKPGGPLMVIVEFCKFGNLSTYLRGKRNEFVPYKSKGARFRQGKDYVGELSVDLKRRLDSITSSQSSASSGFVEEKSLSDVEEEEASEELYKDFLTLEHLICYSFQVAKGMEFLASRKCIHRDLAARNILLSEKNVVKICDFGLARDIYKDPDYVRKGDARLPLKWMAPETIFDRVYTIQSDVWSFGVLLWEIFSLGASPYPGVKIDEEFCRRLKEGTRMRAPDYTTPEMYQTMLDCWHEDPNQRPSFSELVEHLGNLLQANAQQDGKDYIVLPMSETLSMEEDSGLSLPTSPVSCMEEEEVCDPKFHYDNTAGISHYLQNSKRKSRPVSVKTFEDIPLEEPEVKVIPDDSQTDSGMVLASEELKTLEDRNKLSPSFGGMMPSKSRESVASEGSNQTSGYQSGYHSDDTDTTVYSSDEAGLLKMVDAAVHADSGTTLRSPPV
T2 sequence (P00533 25-1210): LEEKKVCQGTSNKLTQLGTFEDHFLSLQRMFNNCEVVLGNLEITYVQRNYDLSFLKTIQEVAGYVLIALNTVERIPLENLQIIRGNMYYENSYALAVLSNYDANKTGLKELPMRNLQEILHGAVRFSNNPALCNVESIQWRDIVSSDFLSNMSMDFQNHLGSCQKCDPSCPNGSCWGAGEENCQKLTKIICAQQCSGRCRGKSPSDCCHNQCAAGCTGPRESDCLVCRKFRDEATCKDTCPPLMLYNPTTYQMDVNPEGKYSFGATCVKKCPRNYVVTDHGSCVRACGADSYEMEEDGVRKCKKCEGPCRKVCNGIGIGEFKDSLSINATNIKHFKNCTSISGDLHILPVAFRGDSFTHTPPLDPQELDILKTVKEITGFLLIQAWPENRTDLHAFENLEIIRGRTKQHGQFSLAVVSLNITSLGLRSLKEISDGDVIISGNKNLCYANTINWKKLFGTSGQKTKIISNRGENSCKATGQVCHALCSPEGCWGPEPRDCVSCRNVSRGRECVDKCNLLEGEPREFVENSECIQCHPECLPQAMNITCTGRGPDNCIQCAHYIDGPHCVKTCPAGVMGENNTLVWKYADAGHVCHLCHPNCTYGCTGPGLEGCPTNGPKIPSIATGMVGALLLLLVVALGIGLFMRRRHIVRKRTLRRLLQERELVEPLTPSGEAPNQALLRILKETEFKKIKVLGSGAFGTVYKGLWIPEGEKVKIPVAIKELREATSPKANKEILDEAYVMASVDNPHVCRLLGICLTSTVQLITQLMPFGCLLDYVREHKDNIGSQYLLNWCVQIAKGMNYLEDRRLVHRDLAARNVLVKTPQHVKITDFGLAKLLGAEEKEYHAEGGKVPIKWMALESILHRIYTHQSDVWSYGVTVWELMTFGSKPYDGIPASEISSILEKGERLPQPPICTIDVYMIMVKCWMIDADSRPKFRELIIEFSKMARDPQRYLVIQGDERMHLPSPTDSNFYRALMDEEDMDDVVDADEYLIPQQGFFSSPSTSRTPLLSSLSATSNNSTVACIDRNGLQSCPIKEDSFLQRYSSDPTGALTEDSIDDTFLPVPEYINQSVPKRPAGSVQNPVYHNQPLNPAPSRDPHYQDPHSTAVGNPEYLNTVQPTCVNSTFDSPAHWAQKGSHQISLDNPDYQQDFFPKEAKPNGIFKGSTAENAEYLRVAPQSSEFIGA
Myc-GyrB-FGFR fusion protein, sequence (P11362 398-822): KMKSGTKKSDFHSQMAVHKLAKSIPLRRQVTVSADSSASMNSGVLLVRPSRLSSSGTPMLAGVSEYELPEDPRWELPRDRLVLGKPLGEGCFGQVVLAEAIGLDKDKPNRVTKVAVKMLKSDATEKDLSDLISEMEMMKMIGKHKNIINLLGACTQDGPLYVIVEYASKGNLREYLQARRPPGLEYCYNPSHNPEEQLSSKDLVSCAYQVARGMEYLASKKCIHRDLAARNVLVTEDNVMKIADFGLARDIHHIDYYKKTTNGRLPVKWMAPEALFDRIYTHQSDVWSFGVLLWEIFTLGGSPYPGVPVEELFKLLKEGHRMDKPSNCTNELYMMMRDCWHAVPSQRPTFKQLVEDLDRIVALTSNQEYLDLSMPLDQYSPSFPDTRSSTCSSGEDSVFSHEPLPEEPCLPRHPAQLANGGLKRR

Structure (SMILES)	IC50 [1] [µM]	IC50 (FLK-1 receptor) [nM]	IC50 [2] [µM]	IC50 [3] [µM]	further results
O=C(O)CCc1c(C=C2C(=O)Nc3cc(Cl)ccc32)[nH]c2c1CCCC2 [IN-006, 3-[2-(6-Chloro-2-oxo-1,2-dihydro-indol-3-ylidenemethyl)-4,5,6,7-tetrahydro-1H-indol-3-yl]-propionic acid]	63.6	31	30.2	3.7	
O=C(O)CCc1c(/C=C2\C(=O)Nc3ncccc32)[nH]c2c1CCCC2 [IN-014, 3-[2-(2-Oxo-1,2-dihydro-pyrrolo[2,3-b]pyridin-3-ylidenemethyl)-4,5,6,7-tetrahydro-1H-indol-3-yl]-propionic acid]		140			
COc1cccc(-c2ccc3c(c2)NC(=O)C3=Cc2[nH]c3c(c2CCC(=O)O)CCCC3)c1 [IN-015, 3-{2-[6-(3-Methoxy-phenyl)-2-oxo-1,2-dihydro-indol-3-ylidenemethyl]-4,5,6,7-tetrahydro-1H-indol-3-yl}-propionic acid]		< 780			
O=C(O)CCc1c(C=C2C(=O)Nc3cc(-c4ccccc4)ccc32)[nH]c2c1CCCC2 [IN-017, 3-[2-(2-Oxo-6-phenyl-1,2-dihydro-indol-3-ylidenemethyl)-4,5,6,7-tetrahydro-1H-indol-3-yl]-propionic acid]		< 780			
COc1ccccc1-c1ccc2c(c1)NC(=O)C2=Cc1[nH]c2c(c1CCC(=O)O)CCCC2 [IN-018, 3-{2-[6-(2-Methoxy-phenyl)-2-oxo-1,2-dihydro-indol-3-ylidenemethyl]-4,5,6,7-tetrahydro-1H-indol-3-yl}-propionic acid]		2700			
CC(C)NS(=O)(=O)c1ccc2c(c1)C(=Cc1[nH]c3c(c1CCC(=O)O)CCCC3)C(=O)N2 [IN-019, 3-[2-(5-Isopropylaminosulfonyl-2-oxo-1,2-dihydro-indol-3-ylidenemethyl)-4,5,6 7-tetrahydro-1H-indol-3-yl]-propionic acid]		< 780			
O=C(O)CCc1ccccc1/C=C1/C(=O)Nc2ccccc21 [IN-025, 3-[2-(2-Oxo-1,2-dihydro-indol-3-ylidenemethyl)-phenyl]-propionic acid]					IC50 [4]: 30.2 µM
Cc1ccc2c(c1)C(=Cc1[nH]cc(C)c1CCC(=O)O)C(=O)N2 [IN-032, 3-[2-(5-Methyl-2-oxo-1,2-dihydro-indol-3-ylidenemethyl)-4-methyl-1H-pyrrol-3-yl]-propionic acid]	> 50		30	11	
COc1ccc2c(c1)C(=Cc1[nH]cc(C)c1CCC(=O)O)C(=O)N2 [IN-033, 3-[2-(5-Methoxy-2-oxo-1,2-dihydro-indol-3-ylidenemethyl)-4-methyl-1H-pyrrol-3-yl]-propionic acid]	> 50		35	> 50	IC50 (EGFR protein): > 100 µM
